Experimental data published in publication PMC8379256, “A xanthene derivative, DS20060511, attenuates glucose intolerance by inducing skeletal muscle-specific GLUT4 translocation in mice” (Communications Biology, 2021).
Where “and” joins values, the source holds several entries; their conditions need not be identical. Equal entries are not always repeated.

How the values were obtained:
C57BL/6 mice = assay: In vivo [3H]-2-DG uptake into tissues during intraperitoneal GTT; set-up: species or system mouse; details: for count (dpm) 2DG / count (dpm) Total / dpm/mg 2DG / dpm/mg 2DGP / dpm/mg Total / Ratio: 30 mg/kg; for Ratio: 2DGP relative to vehicle
Description: Tissue glucose uptake was examined by measuring the uptake of [^3H]-2-DG during an intraperitoneal GTT as described previously[46],[47], with minor modifications. Mice that had been denied access to food overnight received oral administration of 30 mg kg^−1 of DS20060511 or vehicle 15 min prior to the glucose load. The mice then received intraperitoneal glucose administration (1 g kg^−1 containing 100 μCi kg^−1 [^3H]-2-DG as tracer), followed by quick removal of the tissues 60 min later. Tissue samples were homogenized in 0.5% perchloric acid and centrifuged, and the supernatants were neutralized with KOH. One aliquot of the supernatants was used for measuring the total radioactivity ([^3H]-2-DG and [^3H]-2-DG 6-phosphate ([^3H]-2-DGP)). A second aliquot of the supernatants was treated with 1 N Ba(OH)2 and 1 N ZnSO4 to remove [^3H]-2-DGP, and the [^3H]-2-DG count was measured. 2-DG uptake into the tissue, which is rapidly metabolized to 2-DGP in the tissue, was estimated by subtracting the count of [^3H]-2-DG from the total count. ^3H-specific activities were counted using a liquid scintillation counter.

HFD-fed mice = assay: Oral GTT in normal-chow and high-fat diet (HFD)-fed mice; assay type: in vivo, mouse; details: for Blood glucose / Plasma insulin: Glucose tolerance test, HFD, 30 mg/kg, individual animals
Description: Fig. 8 Acute and chronic DS20060511 treatment improves glucose intolerance in HFD-fed and db/db mice. a Blood glucose and plasma insulin levels during an oral GTT in normal-chow (NC)- and high-fat diet (HFD)-fed mice (n = 5). Vehicle or DS20060511 (30 mg kg^−1) was given orally 15 min before the oral glucose administration (1.5 g kg^−1). Values shown are means ± SEM. *P < 0.05, **P < 0.01, ***P < 0.001 vs. the HFD vehicle by the t-test. b Effects of 10 μM DS20060511 and 100 nM insulin on 2-DG uptake in muscles isolated from NC-fed (n = 6) and HFD-fed (n = 5) mice. Values shown are means ± SEM. **P < 0.01 by one-way ANOVA followed by Tukey’s test. c, d Changes in the blood glucose levels and AUC on day 1 and day 28 during refeeding (n = 6) in db/db mice treated chronically with DS20060511 (10 mg kg^−1 day^−1). Values shown are means ± SEM. *P < 0.05, **P < 0.01, ***P < 0.001 vs. vehicle by the t-test. e Change of the HbA1c levels in the db/db (n = 6) mice at 4 weeks. Values shown are means ± SEM. *P < 0.05 vs. vehicle by the t-test.
C57BL/6 and db/db mice were purchased from CLEA Japan, Tokyo, Japan. GLUT4- knockout mice were generated at RIKEN BioResource Center, Tsukuba, Japan, according to a previously described method. eNOS-knockout mice were kindly provided by Dr. Masato Tsutsui[41],[42]. The mice were group-housed under controlled illumination (12:12 h light-dark cycle) and temperature (23 ± 2 °C) conditions and given free access to normal chow and water, unless otherwise specified. The HFD-fed obese mice were prepared by feeding C57BL/6 mice a HFD for at least 8 weeks from 6 weeks of age. […] Male mice were used for all the experiments in this study. The animal care and experimental procedures used in the study were approved by The University of Tokyo Animal Care Committee (Approval number: 27-3), and the study was carried out in accordance with the Animal Experimentation Guidelines of Daiichi Sankyo Co., Ltd (Approved number: 20000411).
Mice that had been denied access to food overnight received the indicated oral dose of DS20060511 or vehicle 15 min prior to the glucose load (1.5 g kg^−1, except for eNOS-knockout mice, which received 3.0 g kg^−1). Then, after the oral glucose load, the blood glucose levels were measured using Glutest Every in samples obtained from the tail vein at the indicated timepoints. Plasma insulin concentrations were also measured with an ELISA kit (Morinaga Institute of Biological Science, Yokohama, Japan) in blood samples collected from the tail vein at the indicated timepoints.

COc1ccc2c(C)c(C(=O)O)ccc2c1C1C2=C(CC(C)(C)CC2=O)OC2=C1C(=O)CC(C)(C)C2 [DS20060511]
count (dpm) 2DG (C57BL/6 mice; Gastro.): 405 dpm and 366 dpm and 390 dpm | count (dpm) Total (C57BL/6 mice; Gastro.): 1890 dpm and 1397 dpm and 1924 dpm | dpm/mg 2DG (C57BL/6 mice; Gastro.): 63.3 dpm/mg and 57.2 dpm/mg and 60.9 dpm/mg | dpm/mg 2DGP (C57BL/6 mice; Gastro.): 54.8 dpm/mg and 30.1 dpm/mg and 59.3 dpm/mg | dpm/mg Total (C57BL/6 mice; Gastro.): 118.1 dpm/mg and 87.3 dpm/mg and 120.3 dpm/mg | Ratio (C57BL/6 mice; Gastro.): 4.35 and 2.39 and 4.70 | count (dpm) 2DG (C57BL/6 mice; Heart): 398 dpm and 423 dpm and 382 dpm | count (dpm) Total (C57BL/6 mice; Heart): 1218 dpm and 1277 dpm and 1201 dpm | dpm/mg 2DG (C57BL/6 mice; Heart): 62.2 dpm/mg and 66.1 dpm/mg and 59.7 dpm/mg | dpm/mg 2DGP (C57BL/6 mice; Heart): 39.3 dpm/mg and 40.3 dpm/mg and 40.4 dpm/mg | dpm/mg Total (C57BL/6 mice; Heart): 101.5 dpm/mg and 106.4 dpm/mg and 100.1 dpm/mg | Ratio (C57BL/6 mice; Heart): 0.90 and 0.93 | count (dpm) 2DG (C57BL/6 mice; Soleus): 214 dpm and 169 dpm and 183 dpm | dpm/mg 2DG (C57BL/6 mice; Soleus): 100.3 dpm/mg and 79.2 dpm/mg and 85.8 dpm/mg | dpm/mg Total (C57BL/6 mice; Soleus): 286.0 dpm/mg and 229.5 dpm/mg and 201.0 dpm/mg | count (dpm) Total (C57BL/6 mice; Soleus, 30 mg/kg po, 60 min during ip GTT): 572 dpm and 459 dpm and 402 dpm | dpm/mg 2DGP (C57BL/6 mice; Soleus, 2-DG uptake = Total minus 2DG): 185.7 dpm/mg and 150.3 dpm/mg and 115.2 dpm/mg | Ratio (C57BL/6 mice; Soleus): 4.96 and 4.02 and 3.08 | count (dpm) 2DG (C57BL/6 mice; WAT): 697 dpm and 877 dpm and 734 dpm | count (dpm) Total (C57BL/6 mice; WAT): 1450 dpm and 1799 dpm and 1511 dpm | dpm/mg 2DG (C57BL/6 mice; WAT): 34.9 dpm/mg and 43.9 dpm/mg and 36.7 dpm/mg | dpm/mg 2DGP (C57BL/6 mice; WAT): 13.5 dpm/mg and 16.1 dpm/mg and 13.7 dpm/mg | dpm/mg Total (C57BL/6 mice; WAT): 48.3 dpm/mg and 60.0 dpm/mg and 50.4 dpm/mg | Ratio (C57BL/6 mice; WAT): 0.99 and 1.18 and 1.00 | uptake of [3H]-2-DG (in words) (C57BL/6 mice; soleus and gastrocnemius muscles, ip GTT, 30 mg kg−1): significant increase | Blood glucose (HFD-fed mice; 0 min): 194 mg/dL and 178 mg/dL and 193 mg/dL and 108 mg/dL and 185 mg/dL | Plasma insulin (HFD-fed mice; 0 min): 0.79 ng/mL and 1.09 ng/mL and 0.57 ng/mL and 0.32 ng/mL and 0.69 ng/mL | Blood glucose (HFD-fed mice; 15 min): 331 mg/dL and 278 mg/dL and 279 mg/dL and 180 mg/dL and 270 mg/dL | Plasma insulin (HFD-fed mice; 15 min): 3.22 ng/mL and 2.72 ng/mL and 2.47 ng/mL and 1.43 ng/mL and 1.91 ng/mL | Blood glucose (HFD-fed mice; 30 min): 200 mg/dL and 213 mg/dL and 232 mg/dL and 161 mg/dL | Plasma insulin (HFD-fed mice; 30 min): 1.03 ng/mL and 1.28 ng/mL and 0.97 ng/mL and 0.53 ng/mL and 0.78 ng/mL | Blood glucose (HFD-fed mice; 60 min): 209 mg/dL and 214 mg/dL and 235 mg/dL and 141 mg/dL and 229 mg/dL | Blood glucose (HFD-fed mice; 90 min): 199 mg/dL and 201 mg/dL and 204 mg/dL and 164 mg/dL and 209 mg/dL | Blood glucose (HFD-fed mice; 120 min): 188 mg/dL and 154 mg/dL and 227 mg/dL and 155 mg/dL and 189 mg/dL | Blood glucose (HFD-fed mice; -15 min): 212 mg/dL and 167 mg/dL and 176 mg/dL and 120 mg/dL and 197 mg/dL | Plasma insulin (HFD-fed mice; -15 min): 1.31 ng/mL and 2.09 ng/mL and 1.16 ng/mL and 0.67 ng/mL | blood glucose levels during oral GTT (in words) (HFD-fed mice; HFD-fed mice, 30 mg kg−1 po): significantly decreased the blood glucose levels | plasma insulin levels during oral GTT (in words) (HFD-fed mice; HFD-fed mice, 30 mg kg−1 po): rather decreased
